Data on 1 substance can be found in US20240050526A1, “CATH2 DERIVATIVES FOR STIMULATING INNATE IMMUNE MEMORY” (priority 2020, published 2024).

The test system of one assay is dTHP-1 cells. Briefly: Metabolomics of DCATH-2 trained dTHP-1 cells. Format: cell-based, human. How it is done:
dTHP-1 cells were seeded (1×10^6 cells/well) in 6 wells plates and primed during 24 h with 5 μM DCATH-2 as described using medium as control. Cell supernatants, cell lysates and medium controls were collected before and after 24 h priming in the absence and presence of 10 nM rapamycin, after washing followed by 3 days rest and after subsequent 24 h LPS (E. coli O111:B4) stimulation. For sample collections, cells were washed once in ice-cold PBS, lysed with by adding 1 ml cold methanol/acetonitrile/water (2:2:1) lysis buffer, scraped and transferred in to vials. Cell supernatants and medium control samples (10 μl) were directly mixed with 200 μl lysis buffer. Samples were shaken for 10 min at 4° C. and centrifuged for 15 min at 18,000×g and 4° C. Supernatants were flash frozen in liquid nitrogen and stored at −80° C. for analysis. Liquid chromatography-mass spectrometry analysis was performed using an Exactive mass spectrometer (Thermo Scientific), coupled to a Dionex Ultimate 3000 auto sampler and pump (Thermo Scientific). The mass spectrometry operated in polarity-switching mode with spray voltages of 4.5 and −3.5 kV. Metabolites were separated using a Sequant ZIC-pHILIC column (2.1×150 mm, […], guard column 2.1×20 mm, […]; Merck) using a linear gradient of acetonitrile and eluent A 20 mM (NH4)2CO3, 0.1% NH40H in ULC/MS grade water (Biosolve BV, Valkenswaard, The Netherlands) and a flow rate of 150 μl/min. Metabolites were identified and peak intensities quantified using LCquan software (Thermo Scientific) on the basis of exact mass within 5 ppm and further validated by concordance with retention times of commercially available standards. Peak intensities were normalized on cell counts of parallel wells before and after LPS stimulation.

Another assay deals with Salmonella enterica. Conditions: injected into the yolk of zebrafish embryos, intravenous infection; cited from earlier work.
The subject of assay [1] is Candida albicans ATCC10231. Nature of the assay: Candidacidal activity of DCATH-2 primed dTHP-1 cells. It counts as cell-based. Conditions: 24 h DCATH-2 training; colonies after 48 h. Here is the method: dTHP-1 cells were seeded in 6 well plates and primed with DCATH-2 or medium as described. Candida albicans ATCC10231 was grown in yeast malt broth (Oxoid) at 30° C., diluted in DPBS to 1×10^4 CFU/ml and added to each well (MOI of 0.03). After 5 h incubation at 30° C., supernatants were transferred and kept. The remaining cells were supplemented with 0.5 ml of sterile water, mixed vigorously and combined with their corresponding well supernatants. Serial dilutions prepared in yeast malt broth were plated onto yeast malt agar. Colonies were counted after 48 h at 30° C.

[2] abbreviates: 5 μM, 24 h priming, 3 days rest.
The mark [3] stands for this setting: after 24 h E. coli LPS stimulation.

Square brackets hold non-standard residues; d marks the D form. Ends that are not written are not given here.

“rfgrflrkirrfrpkvtitiqgsarf-NH2 ([dR][dF]G[dR][dF][dL][dR][dK][dI][dR][dR][dF][dR][dP][dK][dV][dT][dI][dT][dI][dQ]G[dS][dA][dR][dF]-NH2; N-terminus assumed; SMILES CC[C@@H](C)[C@@H](NC(=O)[C@@H](CCCCN)NC(=O)[C@@H](CCCNC(=N)N)NC(=O)[C@@H](CC(C)C)NC(=O)[C@@H](Cc1ccccc1)NC(=O)[C@@H](CCCNC(=N)N)NC(=O)CNC(=O)[C@@H](Cc1ccccc1)NC(=O)[C@H](N)CCCNC(=N)N)C(=O)N[C@H](CCCNC(=N)N)C(=O)N[C@H](CCCNC(=N)N)C(=O)N[C@H](Cc1ccccc1)C(=O)N[C@H](CCCNC(=N)N)C(=O)N1CCC[C@@H]1C(=O)N[C@H](CCCCN)C(=O)N[C@@H](C(=O)N[C@@H](C(=O)N[C@@H](C(=O)N[C@@H](C(=O)N[C@@H](C(=O)N[C@H](CCC(N)=O)C(=O)NCC(=O)N[C@H](CO)C(=O)N[C@H](C)C(=O)N[C@H](CCCNC(=N)N)C(=O)N[C@H](Cc1ccccc1)C(N)=O)[C@H](C)CC)[C@H](C)O)[C@H](C)CC)[C@H](C)O)C(C)C) [DCATH-2, full D-amino acid analog of CATH-2]”: in the assay with dTHP-1 cells (setting [2]), the “TCA cycle and urea cycle” value is “not significantly affected”; the “de novo pyrimidine synthesis” value is on record as “increased”; the “glycolysis (metabolic intermediates)” value was “increased”; the intracellular glucose concentrations entry is “lower”. Also, in the assay on dTHP-1 cells (setting [2]), the intracellular lactate levels result is recorded as “higher”; the “lactate secretion into the medium” value is given as “augmented”; the “levels of intracellular medium-chain and long-chain acylcarnitines” value was “dramatically increased”; the “usage of amino acids” value was “overall enhanced usage”. Besides, the “TCA cycle, urea cycle or amino acid metabolism” value in the assay on dTHP-1 cells (LPS stimulation of trained cells) is reported as “did not affect”. In the assay on dTHP-1 cells (setting [3]), the “intracellular levels of medium-chain and long-chain acylcarnitines” value is listed as “remained elevated”; the “training induced metabolic shift during LPS stimulation” value is “maintained”. The “mortality after lethal dose of Salmonella enterica” value in the assay with Salmonella enterica was “delayed mortality”. In addition, the “inhibition of outgrowth of Candida albicans vs non-primed dTHP-1 cells” value in assay [1] was found to be 68±10%.
